Like-named read-outs stand apart in the source and are kept apart here.
Test system: P. acnes
Assay: agar dilution method: growth index and MIC on P. acnes (single compounds and combinations)
Type: cell-based
Details: for MIC: Cutibacterium acnes; for growth of P. Acnes with the combination compared with 15-HETrE used alone: in combination with 15-HETrE; for growth of P. Acnes with the combination compared with 15-OHEPA used alone: in combination with 15-OHEPA; for growth of P. Acnes with the combination compared with DGLA used alone: in combination with DGLA
Procedure: Several compounds including fatty acids such as DGLA, 15-OHEPA, and 15-HETrE were tested to determine their capacity to inhibit the growth of P. acnes. In an exemplary method, an agar dilution method was used to determine the minimum inhibitory concentration (MIC) of each tested compound. Briefly, the agar dilution method involved preparing a series of concentrations of each compound (e.g., nicotinamide, benzoyl peroxide, adapalene, metronidazole, DGLA, 15-OHEPA, and 15-HETrE) in a Reinforced Clostridial Agar (RCA) media that facilitates growth of P. acnes under anaerobic conditions. An inoculum of P. acnes was prepared by incubation of P. acnes for approximately seven days at 35-37° C. to achieve a ≧1.0 OD600 inoculum of P. acnes in RCM broth. A portion of this inoculum was then added to the surface of each plate as a 10 μL spot and incubated at 35-37° C. for 72 hours or more. Growth of P. acnes was then observed and compared to control plates in which no compound has been added, and positive inhibition plates prepared with erythromycin. […] The growth of P. acnes in the presence of nicotinamide, benzoyl peroxide, adapalene, metronidazole, DGLA, 15-OHEPA, and 15-HETrE was determined with varying concentrations of the compound (see, Table 2). Next, the MIC was determined as the concentration at which a marked reduction (+) occurs in the appearance of growth on the test plate (as per Clinical and Laboratory Standards Institute M11-A7). The compounds tested singly in Example 1 were tested in combination with one another to determine the capacity of the combination to inhibit the growth of P. acnes. In an exemplary method, the MIC was determined for each of the combination as described in Example 1. Briefly, test combinations included DGLA with nicotinamide, benzoyl peroxide, adapalene, or metronidazole; 15-HETrE with nicotinamide, benzoyl peroxide, adapalene, or metronidazole; and 15-OHEPA with nicotinamide, benzoyl peroxide, adapalene, or metronidazole. The tables below show the growth of P. acnes in the presence of 0.4 or 1.0 mg/mL DGLA with varying concentrations of nicotinamide, benzoyl peroxide, adapalene, or metronidazole (Table 3); the growth of P. acnes in the presence of 0.01 or 0.05 mg/mL 15-HETrE with varying concentrations of nicotinamide, benzoyl peroxide, adapalene, or metronidazole (Table 5); and the growth of P. acnes in the presence of 0.5 or 0.1 mg/mL 15-OHEPA with varying concentrations of nicotinamide, benzoyl peroxide, adapalene, or metronidazole (Table 7).

[1] = read-out: MIC (mg/mL) with 0.01 mg/mL 15-HETrE spike
[2] = read-out: MIC (mg/mL) with 0.05 mg/mL 15-OHEPA spike
[3] = with 0.05 mg/mL 15-HETrE (inhibitory concentration), read-out: MIC (mg/mL) with 0.05 mg/mL 15-HETrE spike
[4] = with 0.1 mg/mL 15-OHEPA (inhibitory concentration), read-out: MIC (mg/mL) with 0.1 mg/mL 15-OHEPA spike
[5] = with 0.4 mg/mL dGLA (Sigma), read-out: MIC (mg/mL) with 0.4 mg/mL dGLA spike
[6] = with 1.0 mg/mL dGLA (Cayman), read-out: MIC (mg/mL) with 1.0 mg/mL dGLA spike

MIC (compound alone, read-out: MIC (mg/mL) as per P-11-0007 or P-11-0008 Addendum A) [mg/mL] | MIC [1] [mg/mL] | MIC [2] [mg/mL] | MIC [3] [mg/mL] | MIC [4] [mg/mL] | MIC [5] [mg/mL] | MIC [6] [mg/mL] | Structure (SMILES) | growth of P. Acnes with the combination compared with 15-HETrE used alone | growth of P. Acnes with the combination compared with 15-OHEPA used alone | growth of P. Acnes with the combination compared with DGLA used alone
0.6 to 0.8 | 0.6 to 0.8 | 0.4 to 0.6 | < 0.2 | < 0.2 | 0.2 to 0.4 | 0.2 to 0.4 | O=C(OOC(=O)c1ccccc1)c1ccccc1 [Benzoyl Peroxide] | did not reduce the growth of P. Acnes below that of 15-HETrE used alone | – | –
– | > 1 | > 1 | < 0.2 | < 0.2 | > 1 | > 1 | Cc1ncc([N+](=O)[O-])n1CCO [Metronidazole] | did not reduce the growth of P. Acnes below that of 15-HETrE used alone | did not reduce the growth of P. Acnes below that of 15 OHEPA used alone | did not reduce the growth of P. Acnes below that of DGLA used alone
– | 10 to 15 | 10 to 15 | < 1 | < 1 | 10 to 15 | 10 to 15 | NC(=O)c1cccnc1 [Nicotinamide] | did not reduce the growth of P. Acnes below that of 15-HETrE used alone | did not reduce the growth of P. Acnes below that of 15 OHEPA used alone | did not reduce the growth of P. Acnes below that of DGLA used alone

Reference: US20140171358A1, “ANTIMICROBIAL COMPOSITIONS COMPRISING DGLA AND NEOMYCIN SULFATE AND METHODS OF USE THEREOF” (Dignity Sciences Limited, priority 2012, published 2014)
